Results on 3 compounds are retold here after patent US11452758B2, “Antimicrobial peptide derived from LL37 peptide and uses thereof” (INDUSTRY-ACADEMIC COOPERATION FOUNDATION, CHOSUN UNIVERSITY, priority 2018, dated 2022).

The structures appear in SMILES notation. In brackets after ≈: the same amount, converted by molar mass. Read-outs that look alike come from different tables or passages of the source. Where a SMILES comes first, the peptide text is derived from it.

Assay [1] has as its system L. monocytogenes KCTC 3710. The assay is classed as cell-based, Listeria monocytogenes. The source says:
(§1) To compare the antimicrobial activity among the peptides produced by the method of Example 1, the inventors of the present invention measured the minimal growth inhibitory concentration (MIC), which is minimum concentration of the peptide not allowing any […] of bacterial cells.
(§2) Specifically, the bacterial strains described in the following Table 2 were purchased and cultured to a mid-log phase in MHB (Mueller Hinton Broth) medium. Then, after dilution to bacterial cell concentration of 2×10^5 cells/50 μl, the cells were inoculated to a microtiter plate (NUNC, USA). Thereafter, LL37-1, LL37-2, LL37-3 or LL37-4 peptide which has been synthesized in Example 1 above was subjected to serial dilution, ½ times for each, in a 96-well plate. After adding the peptides in an amount of 50 μl to the cell plate, the cells were cultured for 18 hours at 37° C. By using a microtiter plate reader (Merck Elisa reader, Germany), the absorbance was measured at a wavelength of 600 nm to determine the MIC value of each bacterial strain. As a control group, LL37 as a mother peptide was used and subjected to the same process as above to determine the MIC value of each strain.

In a further assay the test system is S. typhimurium KCTC 1925. The assay is classed as cell-based, Salmonella typhimurium.
Text: as §1, §2

In the next assay the test system is S. aureus ATCC 25923. The assay is classed as cell-based, Staphylococcus aureus.
Text: as §1, §2

The next assay has as its system A. baumannii #10. Description: Antibiofilm activity, Crystal violet staining. To be noted: 24 hours. The assay is classed as cell-based, Acinetobacter baumannii. Here is the method: (§3) To compare the antimicrobial activity among the peptides produced by the method of Example 1, the inventors of the present invention measured the biofilm inhibitory concentration value of the peptide for not allowing any dissociation of bacterial cells.
(§4) Specifically, among the bacterial strains described in the above Table 2, bacteria showing the most favorable biofilm forming were cultured to a mid-log phase in a medium with suitable composition. Then, after dilution to bacterial cell concentration of 1×10^6 cells/50 μl, the cells were inoculated to a microtiter plate. Thereafter, LL37, LL37-1, LL37-2, LL37-3 or LL37-4 peptide which has been synthesized in Example 1 above was diluted, 1/10 times for each, with 10 mM phosphate buffered physiological saline (PBS) in a 96-well plate. After adding the peptide (50 μl) to each well of the plate, the cells were cultured for 24 hours at 37° C. After removing the supernatant completely, the cells were fixed with 100% methanol for 15 minutes and stained for 1 hour with Crystal violet staining solution followed by rinsing for 3 times. Then, after dissolving in 95% ethanol, the absorbance was measured at a wavelength of 595 nm by using a microtiter plate reader to determine the biofilm minimal inhibitory concentration value of each bacterial strain.

The test system of another assay is A. baumannii #5. Briefly: Antibiofilm activity, Crystal violet staining. The assay is classed as cell-based, Acinetobacter baumannii. To be noted: 24 hours. Here is the method:
as §3, §4

Another assay concerns A. baumannii KCTC 2508. Briefly: Antibiofilm activity, Crystal violet staining. To be noted: 24 hours. The assay is classed as cell-based, Acinetobacter baumannii. Here is the method: as §3, §4
Assay [2] deals with Acinetobacter baumannii KCTC 2508. Briefly: Flow cytometry after PI staining (bacteria membrane). The assay is classed as cell-based. To be noted: peptide at concentration of MIC, 30 minutes at 37° C. Here is the method:
To determine whether or not the peptides prepared by the method of Example 1 have any effect on bacteria membrane, an analysis was made by flow cytometry.
After that, the supernatant was removed by centrifuge (10,000 rpm) and stained with propidium iodide (PI, concentration of 10 μg/ml) for 30 minutes at 4° C. Thereafter, unbound propidium iodide was removed by centrifuge, and the problem of cell aggregation phenomenon was solved by adding physiological saline (PBS) in an amount of 1 ml.

For assay [3], the system named is Human macrophage cells (U937) infected with Acinetobacter baumannii KCTC 2508. Briefly: Expression of inflammatory cytokines, Western blot and real time RT-PCR. The assay is classed as cell-based. To be noted: U937 infected with A. baumannii KCTC 2508, peptide added 1 hour after infection, sample after 9 hours. Here is the method: To see whether or not a change in expression of inflammatory cytokines in macrophage is caused by the peptides that are prepared by the method of above Example 1, determination was made by Western blot and real time reverse transcription polymerase chain reaction.
Specifically, Acinetobacter baumannii KCTC 2508 cells were cultured to a mid-log phase in MHB medium, and then diluted to a cell concentration of 1×10^7 cells/ml in physiological saline. Human macrophage cells (U937) were then infected with the resulting cells in time-dependent manner to yield the first sample, and another macrophage cells were infected with Acinetobacter baumannii KCTC 2508 cells, which have been diluted to a concentration of 1×10^7 cells, and added with, 1 hour after the infection, mother peptide LL37 or the homologous peptide to collect the second sample after 9 hours. Both collected samples were treated with cell lysis buffer to obtain the supernatant (sup) and pellet (lysate). Thereafter, by Western blot and real time reverse transcription polymerase chain reaction, a change in the expression level of inflammatory cytokines was examined.

Assay [4] relates to Acinetobacter baumannii KCTC 2508. Briefly: Low vacuum scanning electron microscopy (membrane-disrupting property). The assay is classed as cell-based. To be noted: peptide at MIC concentration, 30 minutes at 37° C. Here is the method: To specifically determine the degree of antimicrobial activity of the synthesized peptides of the present invention, the influence of mother peptide LL37 and homologous peptides LL37-1, LL37-2, LL37-3 and LL37-4 on bacteria membrane, i.e., membrane-disrupting property, was determined by low vacuum scanning electron microscopy.
Specifically, Acinetobacter baumannii KCTC 2508 cells were cultured to a mid-log phase in MHB medium, and then diluted to a cell concentration of 2×10^7 cells/ml in physiological saline containing 10% MHB medium. […] After that, by using 2.5% glutaraldehyde, the bacterial cells were fixed for 30 minutes at room temperature and then for 12 hours at 4° C. After carrying out washing with buffer, the cells were fixed again with […] and dehydrated in stepwise manner by using ethanol. After the dehydration, platinum coating was carried out and the cells were observed by low vacuum scanning electron microscopy.

On to `CC[C@H](C)[C@H](NC(=O)[C@H](CCCNC(=N)N)NC(=O)[C@H](CCC(N)=O)NC(=O)[C@@H](NC(=O)[C@@H](NC(=O)[C@H](CCCNC(=N)N)NC(=O)[C@H](CCCCN)NC(=O)[C@H](Cc1ccccc1)NC(=O)[C@H](CCCCN)NC(=O)[C@@H](N)CCCCN)[C@@H](C)CC)C(C)C)C(=O)N[C@@H](CCCCN)C(=O)N[C@@H](CC(=O)O)C(=O)N[C@@H](Cc1ccccc1)C(=O)N[C@@H](CC(C)C)C(=O)N[C@@H](CCCNC(=N)N)C(=O)N[C@@H](CC(N)=O)C(N)=O` [LL37-2, KKFKRIVQRIKDFLRN-NH2] (H-KKFKRIVQRIKDFLRN-NH2), for which the Minimal inhibitory concentration came to 16 µM (≈ 33.4 µg/mL) in [1] (L. monocytogenes KCTC 3710, MHB, 18 hours at 37° C.); 4 µM (≈ 8.35 µg/mL) in the assay with S. typhimurium KCTC 1925 (S. typhimurium KCTC 1925, MHB, 18 hours at 37° C.); 2 µM (≈ 4.18 µg/mL) in the assay on S. aureus ATCC 25923 (S. aureus ATCC 25923, MHB, 18 hours at 37° C.).

Take `CC[C@H](C)[C@H](NC(=O)[C@H](CCCNC(=N)N)NC(=O)[C@H](CCC(N)=O)NC(=O)[C@@H](NC(=O)[C@@H](NC(=O)[C@H](CCCNC(=N)N)NC(=O)[C@H](CCCCN)NC(=O)[C@H](Cc1ccccc1)NC(=O)[C@H](CCC(=O)O)NC(=O)[C@@H](N)CCCCN)[C@@H](C)CC)C(C)C)C(=O)N[C@@H](CCCCN)C(=O)N[C@@H](CCCCN)C(=O)N[C@@H](Cc1ccccc1)C(=O)N[C@@H](CC(C)C)C(=O)N[C@@H](CCCNC(=N)N)C(=O)N[C@@H](CC(N)=O)C(N)=O` [LL37-3, KEFKRIVQRIKKFLRN-NH2] (H-KEFKRIVQRIKKFLRN-NH2; N-terminus assumed): the Minimal inhibitory concentration turned out to be 64 µM (≈ 135 µg/mL) in assay [1] (KCTC 3710, 18 h); 8 µM (≈ 16.8 µg/mL) with S. typhimurium KCTC 1925 (KCTC 1925, 18 h); 4 µM (≈ 8.41 µg/mL) in the assay with S. aureus ATCC 25923 (ATCC 25923, 18 h). In addition, the Biofilm forming ability was determined as 61% with A. baumannii #10 (peptide 2 μM); 38% in the assay with A. baumannii #10 (peptide 4 μM); 34% in the assay on A. baumannii #10 (peptide 8 μM); 32% with A. baumannii #10 (peptide 16 μM); 30% in the assay with A. baumannii #10 (peptide 32 μM); 60% in the assay with A. baumannii #5 (peptide 2 μM). For the same compound, the Biofilm forming ability came to 62% with A. baumannii #5 (peptide 4 μM); 26% in the assay with A. baumannii #5 (peptide 8 μM); 24% with A. baumannii #5 (peptide 16 μM); 20% in the assay on A. baumannii #5 (peptide 32 μM); 52% in the assay with A. baumannii KCTC 2508 (peptide 2 μM); 41% in the assay on A. baumannii KCTC 2508 (peptide 4 μM). Moreover, the Biofilm forming ability in the assay on A. baumannii KCTC 2508 (peptide 8 μM) is listed as 29%; in the assay on A. baumannii KCTC 2508 (peptide 16 μM), 25%; with A. baumannii KCTC 2508 (peptide 32 μM) it was 23%. Further, the “effect on bacteria membrane (PI fluorescence, flow cytometry)” value in assay [2] is given as “bacteria membrane was damaged”. Besides, the “expression level of HMGB-1 and late cytokine (IL-1b and TNF-α)” value in assay [3] was “increase in expression level of HMGB-1 and late cytokine is lower”. The “membrane-disrupting property (scanning electron microscopy)” value in assay [4] is given as “disruption of bacteria membrane”.

As to `CC[C@H](C)[C@H](NC(=O)[C@H](CCCNC(=N)N)NC(=O)[C@H](CCC(N)=O)NC(=O)[C@@H](NC(=O)[C@@H](NC(=O)[C@H](CCCNC(=N)N)NC(=O)[C@H](CCCCN)NC(=O)[C@H](Cc1ccccc1)NC(=O)[C@H](CCCCN)NC(=O)[C@@H](N)CCCCN)[C@@H](C)CC)C(C)C)C(=O)N[C@@H](CCCCN)C(=O)N[C@@H](CCCCN)C(=O)N[C@@H](Cc1ccccc1)C(=O)N[C@@H](CC(C)C)C(=O)N[C@@H](CCCNC(=N)N)C(=O)N[C@@H](CC(N)=O)C(N)=O` [LL37-4, KKFKRIVQRIKKFLRN-NH2] (H-KKFKRIVQRIKKFLRN-NH2; N-terminus assumed), the Minimal inhibitory concentration in [1] (KCTC 3710, 18 h) stood at 16 µM (≈ 33.6 µg/mL); in the assay on S. typhimurium KCTC 1925 (KCTC 1925, 18 h), 4 µM (≈ 8.41 µg/mL); with S. aureus ATCC 25923 (ATCC 25923, 18 h), 2 µM (≈ 4.2 µg/mL). The Biofilm forming ability was found to be 49% in the assay on A. baumannii #10 (peptide 2 μM); 37% in the assay with A. baumannii #10 (peptide 4 μM); 33% in the assay with A. baumannii #10 (peptide 8 μM); 33% in the assay on A. baumannii #10 (peptide 16 μM); 30% in the assay on A. baumannii #10 (peptide 32 μM); 74% in the assay with A. baumannii #5 (peptide 2 μM). For the same compound, the Biofilm forming ability was 59% in the assay with A. baumannii #5 (peptide 4 μM); 49% in the assay with A. baumannii #5 (peptide 8 μM); 22% in the assay with A. baumannii #5 (peptide 16 μM); 20% with A. baumannii #5 (peptide 32 μM); 48% with A. baumannii KCTC 2508 (peptide 2 μM); 32% in the assay with A. baumannii KCTC 2508 (peptide 4 μM). In addition, the results for the Biofilm forming ability in the assay with A. baumannii KCTC 2508 (peptide 8 μM), in the assay with A. baumannii KCTC 2508 (peptide 16 μM) and in the assay on A. baumannii KCTC 2508 (peptide 32 μM) were 28%, 23% and 22%, respectively. The “effect on bacteria membrane (PI fluorescence, flow cytometry)” value in assay [2] is on record as “bacteria membrane was damaged”. In addition, the “expression level of HMGB-1 and late cytokine (IL-1b and TNF-α)” value in [3] was “increase in expression level of HMGB-1 and late cytokine is lower”. Moreover, the “membrane disruption compared to LL37-1 and LL37-3 (scanning electron microscopy)” value in assay [4] was “disrupted more”. Also, the “membrane-disrupting property (scanning electron microscopy)” value in assay [4] is on record as “disruption of bacteria membrane”.
